Measured values as given in ChEMBL document CHEMBL2007661, “Compounds: GSK PKIS; Assays: UNC Frye lab” (2012).
“And” between values parts separate entries of the source, which are not always exact repeats. Identical values can stand only once.

Experiments:
[1] = target: T1, Inhibitor of nuclear factor kappa-B kinase subunit beta (Homo sapiens) (UniProt O14920); conditions: at 1 µM
T1 sequence (whole entry): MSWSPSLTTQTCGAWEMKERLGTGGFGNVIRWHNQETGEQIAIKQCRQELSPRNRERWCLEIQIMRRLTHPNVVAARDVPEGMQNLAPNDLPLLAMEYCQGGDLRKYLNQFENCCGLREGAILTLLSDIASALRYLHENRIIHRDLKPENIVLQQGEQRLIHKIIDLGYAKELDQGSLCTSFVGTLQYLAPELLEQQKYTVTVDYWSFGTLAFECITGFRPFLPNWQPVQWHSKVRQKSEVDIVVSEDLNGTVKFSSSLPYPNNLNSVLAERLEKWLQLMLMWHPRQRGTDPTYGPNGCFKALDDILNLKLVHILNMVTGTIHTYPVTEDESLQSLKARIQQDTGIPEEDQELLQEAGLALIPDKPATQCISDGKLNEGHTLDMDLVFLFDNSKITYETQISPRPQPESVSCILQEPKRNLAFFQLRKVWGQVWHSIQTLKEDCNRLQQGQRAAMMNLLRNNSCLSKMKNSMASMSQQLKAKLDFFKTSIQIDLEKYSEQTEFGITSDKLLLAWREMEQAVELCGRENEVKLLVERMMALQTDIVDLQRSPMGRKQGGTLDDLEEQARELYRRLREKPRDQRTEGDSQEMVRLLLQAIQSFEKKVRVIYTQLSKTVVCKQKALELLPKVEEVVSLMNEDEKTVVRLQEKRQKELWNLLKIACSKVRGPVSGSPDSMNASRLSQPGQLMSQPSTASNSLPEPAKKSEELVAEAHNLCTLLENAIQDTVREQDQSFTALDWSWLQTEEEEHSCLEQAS

[2] = target: T2, Inhibitor of nuclear factor kappa-B kinase subunit epsilon (Homo sapiens) (UniProt Q14164); conditions: at 1 µM
T2 sequence (whole entry): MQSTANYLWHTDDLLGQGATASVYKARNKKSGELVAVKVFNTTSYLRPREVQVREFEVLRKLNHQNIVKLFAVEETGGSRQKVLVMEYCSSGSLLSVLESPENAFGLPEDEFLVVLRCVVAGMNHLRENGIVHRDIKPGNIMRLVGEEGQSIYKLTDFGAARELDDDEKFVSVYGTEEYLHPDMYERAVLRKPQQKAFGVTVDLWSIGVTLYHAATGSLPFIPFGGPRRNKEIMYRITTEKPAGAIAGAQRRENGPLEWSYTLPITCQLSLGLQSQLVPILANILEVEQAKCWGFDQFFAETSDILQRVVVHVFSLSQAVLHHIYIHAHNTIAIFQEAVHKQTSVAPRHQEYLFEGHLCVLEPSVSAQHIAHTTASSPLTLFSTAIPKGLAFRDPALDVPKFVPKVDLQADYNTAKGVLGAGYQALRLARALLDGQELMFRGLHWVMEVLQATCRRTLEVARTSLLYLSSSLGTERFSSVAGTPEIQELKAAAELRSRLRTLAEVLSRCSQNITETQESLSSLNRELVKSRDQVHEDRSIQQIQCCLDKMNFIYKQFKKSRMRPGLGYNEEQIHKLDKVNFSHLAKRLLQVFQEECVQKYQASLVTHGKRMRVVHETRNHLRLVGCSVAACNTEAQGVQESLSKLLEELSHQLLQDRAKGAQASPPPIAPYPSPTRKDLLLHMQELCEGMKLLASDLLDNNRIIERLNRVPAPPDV

[3] = target: T3, Tyrosine-protein kinase Mer (Homo sapiens) (UniProt Q12866); conditions: at 10 µM
T3 sequence (whole entry): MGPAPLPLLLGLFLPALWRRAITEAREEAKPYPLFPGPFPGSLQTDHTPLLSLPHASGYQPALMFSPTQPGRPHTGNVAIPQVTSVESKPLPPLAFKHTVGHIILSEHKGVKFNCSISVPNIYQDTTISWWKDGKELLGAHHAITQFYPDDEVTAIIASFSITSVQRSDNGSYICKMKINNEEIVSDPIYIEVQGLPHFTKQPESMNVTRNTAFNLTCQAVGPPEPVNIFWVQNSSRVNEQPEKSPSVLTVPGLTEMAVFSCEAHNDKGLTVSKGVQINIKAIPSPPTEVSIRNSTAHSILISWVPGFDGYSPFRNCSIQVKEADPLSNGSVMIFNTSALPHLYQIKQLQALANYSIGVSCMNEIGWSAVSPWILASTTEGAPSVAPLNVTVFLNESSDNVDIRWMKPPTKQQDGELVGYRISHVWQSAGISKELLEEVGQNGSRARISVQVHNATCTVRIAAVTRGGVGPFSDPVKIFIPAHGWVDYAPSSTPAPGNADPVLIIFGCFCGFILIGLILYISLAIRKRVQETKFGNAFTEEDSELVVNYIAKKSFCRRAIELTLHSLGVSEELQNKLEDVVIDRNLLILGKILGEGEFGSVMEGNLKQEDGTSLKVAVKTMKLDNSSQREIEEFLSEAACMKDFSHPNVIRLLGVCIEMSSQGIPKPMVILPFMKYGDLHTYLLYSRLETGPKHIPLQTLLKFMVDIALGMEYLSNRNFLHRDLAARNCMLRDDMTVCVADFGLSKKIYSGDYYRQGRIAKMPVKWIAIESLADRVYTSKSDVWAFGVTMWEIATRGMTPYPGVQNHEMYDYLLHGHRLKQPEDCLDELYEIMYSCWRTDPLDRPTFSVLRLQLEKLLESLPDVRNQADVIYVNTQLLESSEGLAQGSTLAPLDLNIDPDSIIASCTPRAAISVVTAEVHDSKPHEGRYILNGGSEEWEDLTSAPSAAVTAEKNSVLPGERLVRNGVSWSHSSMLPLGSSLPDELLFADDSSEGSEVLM

[4] = target: T4, Serine/threonine-protein kinase TBK1 (Homo sapiens) (UniProt Q9UHD2); conditions: at 1 µM
T4 sequence (whole entry): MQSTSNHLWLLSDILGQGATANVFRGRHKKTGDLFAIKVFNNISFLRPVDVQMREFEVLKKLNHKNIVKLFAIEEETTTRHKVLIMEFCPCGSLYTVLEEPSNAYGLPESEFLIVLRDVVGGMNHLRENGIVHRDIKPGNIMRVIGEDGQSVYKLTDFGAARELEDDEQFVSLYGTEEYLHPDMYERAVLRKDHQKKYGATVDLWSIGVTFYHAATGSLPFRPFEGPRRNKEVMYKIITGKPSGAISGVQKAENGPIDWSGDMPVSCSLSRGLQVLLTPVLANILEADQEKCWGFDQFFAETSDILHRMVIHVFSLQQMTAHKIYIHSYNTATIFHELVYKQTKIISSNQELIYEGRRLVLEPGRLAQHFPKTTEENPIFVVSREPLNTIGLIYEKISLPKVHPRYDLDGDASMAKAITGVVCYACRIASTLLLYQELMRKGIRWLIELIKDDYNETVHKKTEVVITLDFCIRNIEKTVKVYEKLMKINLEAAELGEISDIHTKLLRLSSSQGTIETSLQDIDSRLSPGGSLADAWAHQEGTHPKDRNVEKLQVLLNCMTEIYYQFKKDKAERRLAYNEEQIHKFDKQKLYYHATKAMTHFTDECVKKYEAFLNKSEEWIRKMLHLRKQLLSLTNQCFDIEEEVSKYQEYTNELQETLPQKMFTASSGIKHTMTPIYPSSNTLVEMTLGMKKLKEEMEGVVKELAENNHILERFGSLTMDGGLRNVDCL

[5] = target: T5, Inhibitor of nuclear factor kappa-B kinase subunit alpha (Homo sapiens) (UniProt O15111); conditions: at 1 µM
T5 sequence (whole entry): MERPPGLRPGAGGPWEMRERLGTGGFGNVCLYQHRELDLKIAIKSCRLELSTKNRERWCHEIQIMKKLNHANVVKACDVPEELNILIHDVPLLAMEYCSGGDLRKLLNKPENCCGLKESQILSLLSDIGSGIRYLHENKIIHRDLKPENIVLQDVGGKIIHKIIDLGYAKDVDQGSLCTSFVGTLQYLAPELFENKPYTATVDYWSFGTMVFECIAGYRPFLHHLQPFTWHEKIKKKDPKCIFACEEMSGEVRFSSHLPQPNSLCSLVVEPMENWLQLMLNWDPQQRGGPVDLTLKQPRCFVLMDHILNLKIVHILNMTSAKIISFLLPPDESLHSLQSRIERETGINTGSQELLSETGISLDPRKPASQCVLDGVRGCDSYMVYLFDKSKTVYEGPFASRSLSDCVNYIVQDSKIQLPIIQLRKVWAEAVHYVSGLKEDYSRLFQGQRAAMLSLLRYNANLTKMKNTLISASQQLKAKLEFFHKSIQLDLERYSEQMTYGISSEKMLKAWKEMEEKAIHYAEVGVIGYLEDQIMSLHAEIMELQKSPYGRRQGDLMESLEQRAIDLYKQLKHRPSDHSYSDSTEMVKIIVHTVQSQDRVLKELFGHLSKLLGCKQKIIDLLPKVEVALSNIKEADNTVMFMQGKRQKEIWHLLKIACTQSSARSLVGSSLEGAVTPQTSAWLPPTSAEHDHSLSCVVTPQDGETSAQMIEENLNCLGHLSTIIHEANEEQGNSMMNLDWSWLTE

SMILES | inhibition [1] | inhibition [2] | inhibition [3] [%] | inhibition [4] | inhibition [5]
CNC(=O)c1cncc(/C=C/c2c(Cl)cccc2Cl)c1 | -3% and -2% | 0% and 1% | 3 | 0% and -1% | 
Fc1cccc(COc2ccc(Nc3ncnc4cc(-c5ccc[nH]5)sc34)cc2Cl)c1 | 3% and 2% | -1% |  | 0% and -4% | 60% and 64%
NS(=O)(=O)c1ccc(N/C=C2\C(=O)Nc3ccc4ncsc4c32)cc1 | -4% and -5% | -8% and -9% |  | 85% and 86% | -3% and -2%
NC(=O)c1cc(-c2ccc(F)cc2)cc(-c2ccncc2)c1N | 2% and 1% | 2% and 0% | 22 | 16% and 21% | 
C[C@@H](Oc1cc(-n2cnc3ccc(OC4CCN(C)CC4)cc32)sc1C(N)=O)c1ccccc1Cl | -1% and -2% | 1% and 5% | -2 | 7% and 3% | 
O=C(Nc1n[nH]c2nc(-c3ccco3)ccc12)C1CC1 | -6% | 0% |  | 4% and 3% | 7% and 6%
CCS(=O)(=O)c1ccc(OC)c(Nc2ncc(-c3cccc(F)c3)o2)c1 |  | 0% and 2% | 73 | 8% and 7% | 2% and 17%
C[C@@H](Oc1cc(-n2cnc3ccc(OCC4CCN(C)CC4)cc32)sc1C(N)=O)c1ccccc1Cl |  | 3% | 55 | 6% and 8% | -10% and 3%
Clc1ccc(-c2nn3ncccc3c2-c2ccnc(Nc3ccccc3)n2)cc1 |  | 0% and 1% | -9 | -2% and -3% | 50%
CC(C)c1ccc2c(c1)NC(=O)/C2=N/Nc1ccc(S(N)(=O)=O)cc1 |  | 0% | -10 | -5% and -1% | 5% and 4%
Nc1nccc(-c2c(-c3ccc(F)cc3)ncn2C2CCNCC2)n1 | -4% and -5% | 1% [middle of 4 runs] |  | 0% [middle of 4 runs] | 4% (2×) and 5% and 3%
NC(=O)c1cc(-c2ccncc2)cc(-c2ccccc2)c1N | -1% and 0% | 14% | -1 | 10% and 13% | 
CCS(=O)(=O)c1ccc(OC)c(Nc2ncc(-c3cccc(C(C)=O)c3)o2)c1 |  | 1% | 65 | 7% and 5% | -1%
Cc1ccc(NC(=O)CC2CC2)cc1-c1ccc(C(=O)NCC2CC2)cc1 | -2% and -1% | 0% |  | -1% and 1% | 1% and 0%

Continued, values first:

inhibition [1] | inhibition [2] | inhibition [3] [%] | inhibition [4] | inhibition [5] | SMILES
-2% and -4% | 12% and 9% |  | 4% and -2% |  | Fc1ccc(-c2nn3ncccc3c2-c2ccnc(Nc3ccc4c(c3)OCCO4)n2)cc1
 | 11% and 20% | 98 | 24% and 31% | 0% and 2% | COc1cccc(Nc2nccc(-c3cnn4ncccc34)n2)c1
-7% and -4% | 12% [middle of 4 runs] |  | -1% (2×) and 2% and 1% | 2% [middle of 4 runs] | Nc1ncnc2occ(-c3ccc(NC(=O)Nc4cc(C(F)(F)F)ccc4F)cc3)c12
-4% and 0% | 35% and 37% |  | 37% and 39% | -9% | N#Cc1cccc(Nc2nccc(-c3cnn4ncccc34)n2)c1
-4% and -10% | 1% |  | 5% and 2% | 5% | [O-][S+]1CCN(Cc2ccc(-c3ccc4ncnc(Nc5ccc(OCc6ccccc6)c(F)c5)c4c3)o2)CC1
-4% and -8% | -4% and -6% |  | -5% and -3% | 5% and 4% | COC(=O)Nc1nc2ccc(Oc3ccc(NC(=O)Nc4cc(C(F)(F)F)ccc4F)cc3)cc2s1
 | 5% and 6% | -4 | 5% and 6% | -2% and -3% | c1cc(-c2cnn3nc(N4CCOCC4)ccc23)nc(NC2CC2)n1
